The values below come from ChEMBL document CHEMBL5532672, “Discovery of 2-Ethoxy-5-isobutyramido-N-1-substituted Benzamide Derivatives as Selective Kv2.1 Inhibitors with In Vivo Neuroprotective Effects” (J Med Chem, 2024).

SMILES strings stand for the structures. Calls of active or inactive are those of the source. No cut-off for these calls is given here.

The target of assay [1] is T1, Potassium voltage-gated channel subfamily B member 1 (Homo sapiens, UniProt Q14721).
T1 sequence (Q14721 whole entry): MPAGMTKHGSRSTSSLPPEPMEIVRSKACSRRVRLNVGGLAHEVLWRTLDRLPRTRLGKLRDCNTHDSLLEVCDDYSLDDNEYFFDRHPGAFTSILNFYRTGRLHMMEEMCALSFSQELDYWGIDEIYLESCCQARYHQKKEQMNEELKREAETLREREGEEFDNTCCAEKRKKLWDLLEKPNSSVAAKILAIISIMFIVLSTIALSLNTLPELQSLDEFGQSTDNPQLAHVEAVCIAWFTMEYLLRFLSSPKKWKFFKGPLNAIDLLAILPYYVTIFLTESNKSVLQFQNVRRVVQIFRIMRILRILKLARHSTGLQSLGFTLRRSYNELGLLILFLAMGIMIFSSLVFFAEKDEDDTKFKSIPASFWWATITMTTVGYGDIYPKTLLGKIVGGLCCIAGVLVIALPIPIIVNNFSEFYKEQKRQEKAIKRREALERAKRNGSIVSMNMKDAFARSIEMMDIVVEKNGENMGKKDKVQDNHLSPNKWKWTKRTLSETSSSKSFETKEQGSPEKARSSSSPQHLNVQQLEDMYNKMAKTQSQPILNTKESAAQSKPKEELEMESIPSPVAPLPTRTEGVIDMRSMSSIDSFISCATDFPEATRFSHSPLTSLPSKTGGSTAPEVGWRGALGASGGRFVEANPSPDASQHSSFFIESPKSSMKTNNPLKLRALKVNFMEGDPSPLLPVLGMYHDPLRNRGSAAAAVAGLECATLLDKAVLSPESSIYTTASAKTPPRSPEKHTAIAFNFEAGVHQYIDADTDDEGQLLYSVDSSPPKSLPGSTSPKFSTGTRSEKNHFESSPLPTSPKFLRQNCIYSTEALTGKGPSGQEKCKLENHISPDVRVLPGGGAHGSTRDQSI
Put plainly: Inhibition of human KV2.1 stably expressed in HEK293 cells by whole cell patch-clamp assay. The assay is classed as cell-based. Background: In patch-clamp work, channel activity is measured electrically.

Assay [2] deals with Potassium voltage-gated channel subfamily A member 5 (Homo sapiens, UniProt P22460). Put plainly: Inhibition of KV1.5 (unknown origin) by whole cell patch-clamp assay.
Chain of Potassium voltage-gated channel subfamily A member 5 (P22460 whole entry): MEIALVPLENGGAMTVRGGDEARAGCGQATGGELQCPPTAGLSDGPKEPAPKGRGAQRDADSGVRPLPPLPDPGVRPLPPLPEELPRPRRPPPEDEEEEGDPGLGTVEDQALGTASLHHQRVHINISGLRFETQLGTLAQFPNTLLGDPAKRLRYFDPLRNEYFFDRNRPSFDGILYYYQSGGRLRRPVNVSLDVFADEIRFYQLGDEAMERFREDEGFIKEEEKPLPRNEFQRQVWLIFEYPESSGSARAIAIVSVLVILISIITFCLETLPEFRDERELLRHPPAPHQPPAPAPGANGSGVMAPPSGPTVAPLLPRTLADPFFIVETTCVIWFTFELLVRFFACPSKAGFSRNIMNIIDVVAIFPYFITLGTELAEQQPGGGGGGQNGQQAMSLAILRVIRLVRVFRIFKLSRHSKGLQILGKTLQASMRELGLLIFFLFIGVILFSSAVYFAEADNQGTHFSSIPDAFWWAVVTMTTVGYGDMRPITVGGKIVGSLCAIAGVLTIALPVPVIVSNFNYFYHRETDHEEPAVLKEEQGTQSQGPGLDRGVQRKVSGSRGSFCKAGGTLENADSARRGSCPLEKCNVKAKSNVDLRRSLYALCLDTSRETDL
Assay [3] concerns the target T2, Voltage-gated potassium channel KCNC1 (Homo sapiens, UniProt P48547).
T2 sequence (P48547 whole entry): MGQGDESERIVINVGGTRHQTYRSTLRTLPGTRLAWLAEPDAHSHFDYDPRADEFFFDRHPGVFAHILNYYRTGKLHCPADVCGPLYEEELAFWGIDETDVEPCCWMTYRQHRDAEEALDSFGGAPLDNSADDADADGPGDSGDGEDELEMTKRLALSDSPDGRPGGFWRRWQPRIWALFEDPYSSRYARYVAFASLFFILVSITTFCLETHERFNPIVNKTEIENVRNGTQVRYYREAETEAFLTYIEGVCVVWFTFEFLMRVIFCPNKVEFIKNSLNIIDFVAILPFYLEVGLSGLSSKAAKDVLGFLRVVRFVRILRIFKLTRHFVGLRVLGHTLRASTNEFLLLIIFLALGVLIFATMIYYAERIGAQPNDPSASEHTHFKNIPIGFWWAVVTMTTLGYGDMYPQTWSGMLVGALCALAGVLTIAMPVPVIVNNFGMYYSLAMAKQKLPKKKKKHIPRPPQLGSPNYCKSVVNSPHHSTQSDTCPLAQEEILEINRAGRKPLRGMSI
Description: Inhibition of KV3.1 (unknown origin) by whole cell patch-clamp assay.

Assay [4] addresses Voltage-gated inwardly rectifying potassium channel KCNH2 (Homo sapiens, UniProt Q12809). Put plainly: Inhibition of human ERG by whole cell patch-clamp assay. The format is toxicity.
Assay [5] has as its target T3, Potassium voltage-gated channel subfamily B member 1 (Homo sapiens) (UniProt Q14721).
T3 sequence (whole entry): T1 sequence (Q14721 whole entry)
Put plainly: Inhibition of human KV2.1 stably expressed in HEK293 cells at 1 uM by whole cell patch-clamp assay. The format is cell-based.

Chain of Voltage-gated inwardly rectifying potassium channel KCNH2 (Q12809 whole entry): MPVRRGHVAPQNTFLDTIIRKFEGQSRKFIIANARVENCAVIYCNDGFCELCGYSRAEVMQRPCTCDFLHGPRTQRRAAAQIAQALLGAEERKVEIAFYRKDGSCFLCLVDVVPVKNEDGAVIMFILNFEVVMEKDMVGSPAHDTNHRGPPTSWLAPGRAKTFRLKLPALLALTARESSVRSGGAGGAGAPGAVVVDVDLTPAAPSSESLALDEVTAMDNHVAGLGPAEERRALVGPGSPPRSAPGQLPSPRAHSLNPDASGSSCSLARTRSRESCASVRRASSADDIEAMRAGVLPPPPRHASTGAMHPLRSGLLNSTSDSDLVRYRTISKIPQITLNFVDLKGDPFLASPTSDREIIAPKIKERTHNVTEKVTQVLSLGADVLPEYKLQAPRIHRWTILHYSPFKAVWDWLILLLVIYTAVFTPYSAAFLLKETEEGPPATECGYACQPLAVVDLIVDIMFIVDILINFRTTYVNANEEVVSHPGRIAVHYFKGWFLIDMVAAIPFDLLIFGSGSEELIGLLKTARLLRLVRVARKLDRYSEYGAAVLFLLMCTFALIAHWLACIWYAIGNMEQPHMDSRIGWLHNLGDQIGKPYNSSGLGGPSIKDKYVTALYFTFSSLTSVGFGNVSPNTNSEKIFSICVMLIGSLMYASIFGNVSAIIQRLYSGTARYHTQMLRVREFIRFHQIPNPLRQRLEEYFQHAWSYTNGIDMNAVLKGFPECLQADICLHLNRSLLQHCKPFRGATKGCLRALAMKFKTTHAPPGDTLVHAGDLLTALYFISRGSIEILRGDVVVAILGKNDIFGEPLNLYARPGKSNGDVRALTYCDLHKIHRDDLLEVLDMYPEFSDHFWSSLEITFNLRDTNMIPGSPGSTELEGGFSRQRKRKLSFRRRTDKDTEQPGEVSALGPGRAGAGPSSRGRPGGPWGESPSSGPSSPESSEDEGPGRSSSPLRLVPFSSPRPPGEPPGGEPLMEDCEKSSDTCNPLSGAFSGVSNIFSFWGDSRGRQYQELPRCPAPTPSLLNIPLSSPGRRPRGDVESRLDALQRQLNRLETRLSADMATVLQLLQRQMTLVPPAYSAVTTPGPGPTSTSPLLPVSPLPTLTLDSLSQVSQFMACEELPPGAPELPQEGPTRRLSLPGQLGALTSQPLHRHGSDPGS

A word on the IC50: it is the concentration that inhibits the measured activity by half. Low values mean inhibition by little substance, high ones a need for much substance. `CC(C)C(=O)Nc1ccc(OCC(F)(F)F)c(C(=O)NC(C)c2cccc(-c3nccs3)c2)c1` (stereo not drawn) gave an IC50 in assay [1] of more than 1 µM.

`CCOc1ccc(NC(=O)C(C)C)cc1C(=O)NC(C)c1cccc(N2CCC2)c1` (stereo not drawn) yielded a concentration for half-maximal inhibition (IC50) in assay [1] of 0.32 µM.

In assay [1], `CCOc1ccc(NC(=O)C(C)C)cc1C(=O)NC(C)c1ccnc(OC)c1` (stereo not drawn) came in with an IC50 of 0.43 µM.

In the case of `CCOc1ccc(NC(=O)C(C)C)cc1C(=O)NCc1cccc(-c2ccccn2)c1`, the IC50 in assay [1] is more than 1 µM.

Consider `CCOc1ccc(NC(=O)C(C)C)cc1C(=O)NC(C)c1cccc(Br)n1` (stereo not drawn), for which the half-inhibitory concentration (IC50) in assay [1] is approximately 1 µM.

In assay [1], `CCOc1ccc(NC(=O)C(C)C)cc1C(=O)NC(C)c1ccccc1` (stereo not drawn) came in with an IC50 of approximately 1 µM.

On to `CCOc1ccc(NC(=O)C(C)C)cc1C(=O)NCc1cccc(OC(F)F)c1`, for which the IC50 in assay [1] is 0.3 µM; in assay [2], 14.2 µM; in assay [3], more than 30 µM; in assay [4] it was 30 µM.

For the molecule `CC(C)C(=O)Nc1cccc(C(=O)NC(C)c2cccc(-c3nccs3)c2)c1` (stereo not drawn), the IC50 in assay [1] is more than 1 µM.

With `CCOc1ccc(NS(=O)(=O)CC)cc1C(=O)NC(C)c1cccc(-c2nccs2)c1` (stereo not drawn), 10 µM corresponded to half-maximal inhibition in assay [1] (IC50).

In assay [1], `CCOC(=O)Nc1ccc(OCC)c(C(=O)NC(C)c2cccc(-c3nccs3)c2)c1` (stereo not drawn) returned a concentration for half-maximal inhibition (IC50) of 1.1 µM.

On to `CCOc1ccc(NC(=O)C(C)C)cc1C(=O)NC(C)c1cccc(OC)c1` (stereo not drawn), for which half-maximal inhibition in assay [1] (IC50) was put at 0.37 µM. Compared with the last molecule, the IC50 is about 3-fold lower.

For `CC(C)C(=O)Nc1ccc(N(C)C)c(C(=O)NCc2ccccn2)c1`, the IC50 is 0.54 µM in assay [1], more than 30 µM in assay [2], more than 30 µM in assay [3] and 30 µM in assay [4].

`CCOc1ccc(NC(=O)CC)cc1C(=O)NC(C)c1cccc(-c2nccs2)c1` (stereo not drawn) gave an IC50 in assay [1] of approximately 10 µM.

`CCOc1ccc(NC(=O)C(C)C)cc1C(=O)NC(C)c1cccc(F)n1` (stereo not drawn) gave a 50% inhibitory concentration (IC50) in assay [1] of 0.32 µM.

In the case of `CCOc1ccc(NC(=O)C(C)C)cc1C(=O)NC(C)c1cncc(C)n1` (stereo not drawn), the IC50 in assay [1] was more than 1 µM.

In the case of `CCOc1ccc(NC(=O)C(C)C)cc1C(=O)NC(C)c1cccc(-c2nccs2)c1` (stereo not drawn), the IC50 in assay [1] is 0.43 µM; in assay [2], 10 µM; in assay [3] it was more than 30 µM; in assay [4] it was more than 30 µM.

In assay [1], `CCOc1ccc(NC(=O)C(C)C)cc1C(=O)NCc1cccc(N2CCCC2)c1` came in with an IC50 of approximately 1 µM.

Take `CCOc1ccc(C(=O)NC(C)C)cc1C(=O)NCc1cccc(-c2nccs2)c1`: in assay [5], the inhibition entry was “inactive”.

In assay [1], `CCOc1ccc(NC(=O)C(C)C)cc1C(=O)NC(C)c1ccnc(Cl)n1` (stereo not drawn) showed an IC50 of approximately 1 µM.

`CCOc1ccc(NC(=O)C(C)C)cc1C(=O)NCc1cccc(OC(F)(F)F)c1`: the IC50 in assay [1] was found to be 0.337 µM.

Take `CCOc1ccc(NC(=O)OC(C)C)cc1C(=O)NC(C)c1cccc(-c2nccs2)c1` (stereo not drawn): half-maximal inhibition in assay [1] (IC50) required 1 µM.

For `CCCOc1ccc(NC(=O)C(C)C)cc1C(=O)NC(C)c1cccc(-c2nccs2)c1` (stereo not drawn), the IC50 in assay [1] was found to be 0.59 µM.

`CCOc1ccc(NC(=O)C2CCCC2)cc1C(=O)NC(C)c1cccc(-c2nccs2)c1` (stereo not drawn): the 50% inhibitory concentration (IC50) in assay [1] was more than 10 µM.

For `CCOc1ccc(NC(=O)C(C)C)cc1C(=O)NC(C)c1cccc(OC(F)F)c1` (stereo not drawn), the IC50 worked out at 0.25 µM in assay [1], 10 µM in assay [2] and 10 µM in assay [4].

For `CCOc1ccc(N2CCCC2=O)cc1C(=O)NCc1cccc(-c2nccs2)c1`, in assay [5], the inhibition entry was “inactive”.

In the case of `CCOc1ccc(NC(=O)C2CC2)cc1C(=O)NC(C)c1cccc(-c2nccs2)c1` (stereo not drawn), in assay [1], 1.1 µM corresponded to half-maximal inhibition (IC50).

`CCOc1ccc(NC(=O)C(F)(F)F)cc1C(=O)NC(C)c1cccc(-c2nccs2)c1` (stereo not drawn) displayed a half-maximal inhibitory concentration (IC50) in assay [1] of more than 10 µM.

Molecule `CCOc1ccc(NC(C)=O)cc1C(=O)NC(C)c1cccc(-c2nccs2)c1` (stereo not drawn) gave an IC50 in assay [1] of approximately 10 µM.

For the molecule `CCOc1ccc(NC(=O)C(C)C)cc1C(=O)NC(C)c1cccc(OC)n1` (stereo not drawn), the IC50 is 0.05 µM in assay [1], 10 µM in assay [2] and more than 30 µM in assay [4].

In assay [1], `CC(C)C(=O)Nc1ccc(OCC(F)(F)F)c(C(=O)NCc2cccc(-c3nccs3)c2)c1` registered an IC50 of more than 1 µM.

The molecule `CCOc1ccc(NC(=O)C(C)C)cc1C(=O)NC(C)c1cccc(-c2ncccn2)c1` (stereo not drawn) returned an IC50 in assay [1] of 0.66 µM.

Molecule `CC(C)C(=O)Nc1ccc(N(C)C)c(C(=O)NCc2cccnc2)c1` gave an IC50 in assay [1] of more than 1 µM.

In the case of `CCOc1ccc(NC(=O)C(C)C)cc1C(=O)NC(C)c1cccc(C)c1` (stereo not drawn), the IC50 in assay [1] is 0.08 µM; in assay [2], 5.7 µM; in assay [3], more than 30 µM; in assay [4], 30 µM.

As for `CCOc1ccc(NC(=O)C(C)C)cc1C(=O)NC(C)c1cccc(Br)c1` (stereo not drawn), the IC50 in assay [1] was approximately 1 µM.

As for `CC(C)C(=O)Nc1ccc(N(C)C)c(C(=O)NC(C)c2ccccc2)c1` (racemic), the IC50 in assay [1] came out at 0.48 µM.

In assay [1], `CCOc1ccc(NC(=O)C(C)C)cc1C(=O)NC(C)c1cccc(N2CCCC2)c1` (stereo not drawn) came in with an IC50 of approximately 1 µM.

Molecule `CCOc1ccc(NC(=O)C(C)C)cc1C(=O)NC(C)c1ccnc(OC)n1` (stereo not drawn) showed an IC50 in assay [1] of approximately 1 µM.

Consider `CCOc1ccc(NC(=O)C2CCC2)cc1C(=O)NC(C)c1cccc(-c2nccs2)c1` (stereo not drawn), for which the IC50 in assay [1] amounted to 0.55 µM.

Regarding `CC(C)C(=O)Nc1ccc(N(C)C)c(C(=O)NCc2cccc(-c3ccccc3)c2)c1`, in assay [1], inhibition was half-maximal at 3.55 µM (IC50).

In turn, `CCOc1ccc(NC(=O)C(C)C)cc1C(=O)NC(C)c1ccnc(NC)n1` (stereo not drawn) displayed an IC50 in assay [1] of more than 1 µM.

`CCOc1ccc(NC(=O)C(C)C)cc1C(=O)NC(C)c1ccnc(C)n1` (stereo not drawn) displayed an IC50 in assay [1] of approximately 1 µM.

The molecule `CCOc1ccc(NC(=O)C(C)C)cc1C(=O)NCc1cccc(-c2nccs2)c1` displayed an IC50 in assay [1] of 0.53 µM.

For the molecule `CC(C)C(=O)Nc1ccc(N(C)C)c(C(=O)NCc2ccncc2)c1`, in assay [5], the inhibition entry was “inactive”.

In assay [1], `CCOc1ccc(NC(=O)C(C)C)cc1C(=O)NCc1cccc(Br)c1` showed an IC50 of approximately 1 µM.

With `CC(C)C(=O)Nc1ccc(N(C)C)c(C(=O)NCc2cccc(-c3nccs3)c2)c1`, the IC50 in assay [1] was 0.39 µM; in assay [2], 11 µM; in assay [3] it was more than 30 µM; in assay [4], 30 µM.

For the molecule `CCOc1ccc(NC(=O)C(C)C)cc1C(=O)N(C)Cc1cccc(-c2nccs2)c1`, the inhibition result in assay [5] is “inactive”.

In turn, `CC(C)COc1ccc(NC(=O)C(C)C)cc1C(=O)NC(C)c1cccc(-c2nccs2)c1` (stereo not drawn) gave an IC50 in assay [1] of more than 1 µM.

For the molecule `CC(C)C(=O)Nc1ccc(N(C)C)c(C(=O)NCc2cccc3ccccc23)c1`, in assay [1], the IC50 was more than 1 µM.

In turn, `COc1ccc(NC(=O)C(C)C)cc1C(=O)NC(C)c1cccc(-c2nccs2)c1` (stereo not drawn) registered an IC50 in assay [1] of 3 µM.

Turning to `CCOc1ccc(NC(=O)c2ccccc2)cc1C(=O)NCc1cccc(-c2nccs2)c1`, the inhibition entry in assay [5] was “inactive”.

Molecule `CCOc1ccc(NC(=O)C(C)C)cc1C(=O)NC(C)c1cccc(Cl)n1` (stereo not drawn) returned an IC50 in assay [1] of approximately 1 µM.

Turning to `CCOc1ccc(N(C)C(=O)C(C)C)cc1C(=O)NCc1cccc(-c2nccs2)c1`, in assay [5], the inhibition entry is “inactive”.

In turn, `CC(C)C(=O)Nc1ccc(N(C)C)c(C(=O)NCc2cccc(-c3ccco3)c2)c1` yielded an IC50 in assay [1] of more than 1 µM.

The molecule `CC(C)Oc1ccc(NC(=O)C(C)C)cc1C(=O)NC(C)c1cccc(-c2nccs2)c1` (stereo not drawn) registered an IC50 in assay [1] of more than 1 µM.
